According to patent US11505530B2, “1,8-naphthalimide derivative, preparation method therefor and use thereof” (SOOCHOW UNIVERSITY, priority 2018, dated 2022):

Assays:
Format in all cases: physicochemical
[1] = Effect of coexisting metal ions on BNGT as pH colorimetric switch; details: pH 5.8 and pH 6.0, metal ions 100 μM
Protocol: In order to understand the interference of common metal ions on BNGT as a pH colorimetric switch, Fe^2+, Fe^3+, Cu^2+, K^+, Na^+, Mg^2+, Ag^+, Zn^2+, Cr^3+, Cd^2+, […], Ni^2+, Mn^2+, Pb^2+, Hg^2+ and Ca^2+ were added to the acetonitrile/water (in a volume ratio of 1/99 (a), 1/1 (b) and 8/2 (c)) solution, and the UV-Vis absorption spectra of the solution before and after the addition of these metal ions were obtained. […]
Second, the effect of coexisting metal ions on the absorbance of the solution at 527 nm, 535 nm and 537 nm was investigated, with the results as shown in FIG. 11; solvent: acetonitrile/water, in a volume ratio of 1/99 (a), 1/1 (b) and 8/2 (c); concentration: BNGT 10 μM, metal ions 100 μM; 1: none, 2: Ca^2+, 3: Mg^2+, 4: Ag^+, 5: Pb^2+, 6: Cu^2+, 7: Mn^2+, 8: Co^2+, 9: Cd^2+, 10: Ni^2+, 11: K^+, 12: Na^+, 13: Fe^3+, 14: Zn^2+, 15: Cr^2+, 16: Hg^2+, 17: Fe^2+; absorption wavelength: 527 nm, 535 nm and 537 nm. […] Therefore, the aforementioned metal ions had little effect on the response of BNGT to pH in terms of enhanced absorbance.

[2] = Reversibility of BNGT as pH colorimetric switch; details: pH alternating between 5.8 and 6.0
Description: 1 M HCl and 1 M NaOH were used to make the pH value of the acetonitrile/water (in a volume ratio of 1/99 (a), 1/1 (b) and 8/2 (c)) solution of BNGT alternately change between 5.8 and 6.0, so as to determine the UV-Vis absorption spectrum of the solution.
First, the reversibility of response of the maximum absorption wavelength and color of the solution to pH was investigated, with the results as shown in FIG. 12; solvent: acetonitrile/water, in a volume ratio of 1/99 (a), 1/1 (b) and 8/2 (c); concentration: BNGT 10 μM.
Second, the reversibility of response of the absorbance of BNGT to pH at 527 nm, 535 nm and 537 nm was investigated, with the results as shown in FIG. 13; solvent: acetonitrile/water, in a volume ratio of 1/99 (a), 1/1 (b) and 8/2 (c); concentration: BNGT 10 μM; the maximum absorption wavelengths corresponding to the absorbance of the three solutions were 527 nm, 535 nm and 537 nm, respectively. It can be seen from the figure that the pH value alternated between 5.8 and 6.0, and the absorbance of the acetonitrile/water (in a volume ratio of 1/99 (a), 1/1 (b) and 8/2 (c)) solution of BNGT also changed circularly from small to large at 527 nm, 535 nm and 537 nm, respectively.

[3] = UV-Vis absorption response of BNGT to pH; details: for maximum absorption wavelength: BNGT 10 μM
Protocol: Preparing a 1.0×10^−3 mol/L BNGT stock solution with acetonitrile as a solvent, and transferring 100 μL of the BNGT stock solution respectively into three series of 10 mL volumetric flasks; adding 7 mL of deionized water to the first series of volumetric flasks, adding 2 mL of deionized water and 5 ml of acetonitrile to the second series of volumetric flasks, and adding 1 mL of deionized water and 8 ml of acetonitrile to the third series of volumetric flasks; then titrating to the desired pH value respectively with 0.1 M NaOH and 0.1 M HCl aqueous solutions, and finally making up to volume with deionized water to obtain an acetonitrile/water solution of BNGT with different pHs in three solvent systems, the volume ratios of acetonitrile/water in the three solvent systems being 1/99, 1/1 and 8/2, respectively.
Therefore, in the three solvents (acetonitrile/water in a volume ratio of 1/99, 1/1 and 8/2), BNGT could be used as a pH colorimetric switch by means of three ways (a maximum absorption wavelength, absorbance and color).

[4] = Speed of response of BNGT to pH; details: three solvents
Description: To investigate the speed of response of BNGT to pH, adding 1 M NaOH aqueous solution to an acetonitrile/water (in a volume ratio of 1/99 (a), 1/1 (b) and 8/2 (c)) solution of BNGT at pH 5.8 to adjust the pH to 6.0; measuring the UV-Vis absorption spectrum of the solution before and after the adjustment, and plotting the maximum absorption wavelength and color over time, with the results as shown in FIG. 8; solvent: acetonitrile/water, in a volume ratio of 1/99 (a), 1/1 (b) and 8/2 (c); concentration: BNGT 10 μM.
The absorbance was plotted against time and the results were shown in FIG. 9; solvent: acetonitrile/water, in a volume ratio of 1/99 (a), 1/1 (b) and 8/2 (c); concentration: BNGT 10 μM; absorption wavelength: 527 nm, 535 nm and 537 nm.

[5] = pH 5.8 to 6.0, acetonitrile/water 1/1
[6] = pH 5.8 to 6.0, acetonitrile/water 1/99
[7] = pH 5.8 to 6.0, acetonitrile/water 8/2

For `CCCCN1C(=O)c2cccc3c(NN=CC=NC(CO)(CO)CO)ccc(c23)C1=O` [BNGT], the “effect of coexisting metal ions on absorbance” value ([1]; 527 nm, 535 nm and 537 nm) was “did not change much”, the “effect of coexisting metal ions on maximum absorption wavelength and color” value ([1]; BNGT 10 μM, three solvents) was “almost unchanged” and the “reversibility of response of absorbance to pH” value ([2]; 527 nm, 535 nm and 537 nm) was “very good reversibility”. For the same compound, the “reversibility of response of maximum absorption wavelength and color to pH” value ([2]; three solvents) was “good reversibility”, the maximum absorption wavelength ([3]; pH 1.9 to 5.8, acetonitrile/water 1/1) was “around 420 nm” and the maximum absorption wavelength ([3]; pH 1.9 to 5.8, acetonitrile/water 1/99) was “around 432 nm”. For the same compound, the maximum absorption wavelength ([3]; pH 1.9 to 5.8, acetonitrile/water 8/2) was “around 422 nm”, the “increase of absorbance at 535 nm” value [3, 5] was “about 20 times” and the “red shift of maximum absorption wavelength” value (“red shift” below) [3, 5] was 115 nm. The “increase of absorbance at 527 nm” value [3, 6] was “about 6 times”, the “red shift” value [3, 6] was 95 nm and the “increase of absorbance at 537 nm” value [3, 7] was “about 28 times”. For the same compound, the “red shift” value [3, 7] was 115 nm, the maximum absorption wavelength ([3]; pH 6.0 to 12.0, acetonitrile/water 1/1) was “around 535 nm” and the maximum absorption wavelength ([3]; pH 6.0 to 12.0, acetonitrile/water 1/99) was “about 527 nm”. For the same compound, the maximum absorption wavelength ([3]; pH 6.0 to 12.0, acetonitrile/water 8/2) was “around 537 nm”, the “stability of absorbance for the next 30 min” value ([4]; after pH adjusted to 6.0) was “remained basically stable” and the “time for absorbance to reach the maximum” value ([4]; pH 5.8 adjusted to 6.0 with NaOH, 527 nm, 535 nm and 537 nm) was “about 2 min”. For the same compound, the color change ([4]; pH changed from 5.8 to 6.0) was “colorless to red”.
